# Results from patent publication US20090221522A1, “METHODS TO CORRECT GENE SET EXPRESSION PROFILES TO DRUG SENSITIVITY” (The Johns Hopkins University, priority 2008, published 2009).
# Columns and labels:
# [1] = tested on: patient-derived xenografts refractory to gemcitabine; assay: Pre-clinical second-line study in xenografts refractory to gemcitabine (TGI); type: in vivo, mice; details: for tumor volume change: second-line molecular mimicry choice (docetaxel)
# Experimental: FIG. 11 illustrates a pre-clinical design.
# FIG. 12 illustrates validation on the xenografts of FIG. 11 based on prediction according to the present invention. Four xenograft cases were used. […] A case is defined as a responder to the drug treatment if Tumor Growth Inhibition (TGI) is <20%. Negative TGI values indicate tumor regression.
# (§1) Relative tumor growth index (TGI) was calculated as TGI=(Ti−T0/Ci−C0) if Ti>T0 (indicates tumor growth inhibition) and TGI=(Ti−T0) if Ti≦T0 (indicates tumor regression). T and C represent tumor size in the treated and control group at the last of experiment, respectively; T0 and C0 represent tumor size in the treated and control group at the start of treatment, respectively.
# Seven FDA approved anticancer agents (capecitabine, cisplatin, docetaxel, doxorubicin, etoposide, irinotecan and oxaliplatin) were used as potential second line of drugs for selection according to the present invention. The one-size-fits-all treatment was erlotinib, an FDA approved targeted therapy for advanced pancreatic cancer. See Moore M J, Goldstein D, Hamm J, et al. Erlotinib plus gemcitabine compared with gemcitabine alone in patients with advanced pancreatic cancer: a phase Ill trial of the National Cancer Institute of Canada Clinical Trials Group. J Clin Oncol 25:1960-06 2007. […] Xenograft models of these cases were randomly assigned to (i) control, (ii) erlotinib arm (one-size-fits-all second line treatment) and (iii) molecular mimicry arm (i.e., drug selection according to the present invention). For the molecular mimicry arm, the baseline gene expression profiles of these cases were connected the NCI reference panel using GS-CMAP, and one of the seven anticancer agents was assigned to the case based on comparing the GI50 among these drugs. Molecular mimicry predicted that JH033 and JH034 are sensitive to docetaxel, PANC185 is sensitive to irinotecan and PANC219 is sensitive to doxorubicin. These cases were treated with the molecular mimicry choice of drugs and tumor volumes were measured. At the end of the experiment, xenografts treated with molecular mimicry choice of drugs had higher tumor growth inhibition than their litter mates treated with erlotinib (FIGS. 12 and 13).
# [2] = tested on: direct-patient pancreatic cancer xenografts; assay: Xenograft treatment, relative tumor growth inhibition (TGI); type: in vivo, mice
# Description: Four- to six-week-old female athymic (nu/nu) mice were purchased from Harlan (Harlan Laboratories, Washington, D.C.). The research protocol was approved by the Johns Hopkins University Animal Use and Care Committee and animals were maintained in accordance to guidelines of the American Association of Laboratory Animal Care. Xenografts obtained from F1 mice were excised and cut into small ˜3×3×3 mm fragments and then implanted subcutaneously in a group of five to six mice for each patient, with two small fragments in each mouse (F2) as described above for the original carcinoma. Half of the rest of the carcinoma was cryopreserved in liquid nitrogen and the other half is processed for biological studies. When the carcinoma reached a size of 1,500 mm^3, they were excised, cut into ˜3×3×3 mm fragments, and transplanted to the final cohort of mice to be treated with the drugs (F3 and successive passages). Further details of the establishment of the direct-patient pancreatic cancer xenografts are described in Rubio-Viqueira B, Jimeno A, Cusatis G, et al. An In vivo Platform for Translational Drug Development in Pancreatic Cancer. Clin Cancer Res 2006 12:4652-61.
# Gemcitabine (Eli Lilly, Indianapolis, Ind.) was dissolved in saline. In some embodiments, docetaxel (Sanofi-Aventis, Bridgewater, N.J.) was dissolved in 50% ethanol and 50% DMSO. In other embodiments, docetaxel (Sanofi-Aventis, Bridgewater, N.J.) was dissolved in ethanol/polysorbate 80 as a stock solution and diluted 10-fold in 5% glucose for in vivo studies. Temsirolimus (Wyeth Research, Colleville, Pa.) was dissolved in 10% ethanol, 10% pluronic, and 80% PBS. All drugs were freshly prepared and used at an injection volume of 0.2 mL/20 g body weight. Drug doses and treatment schedules were obtained from published studies.
# Xenografts from this second mouse-to-mouse passage (F3) were allowed to grow to a size of ˜200 mm^3, at which time five-to-six mice were randomly assigned to control and treatment groups. […] For docetaxel treatment group, mice were treated with 20 mg/kg once a week via intraperitoneal injection. For temsirolimus treatment group, mice were treated with 20 mg/kg/day via intraperitoneal injection. Mice were treated for 21-28 days, monitored daily for signs of toxicity, and were weighed thrice a week. Tumor size was evaluated thrice a week by caliper measurements using the following formula: tumor volume=[length×width^2]/2 as reported by van de Vijver M J, He Y D, van't Veer L J, et al. A Gene-Expression Signature as a Predictor of Survival in Breast Cancer. N Engl J Med 2002 347:1999-2009.
# as §1
compound,measurement,setting,value
C#Cc1cccc(Nc2ncnc3cc(OCCOC)c(OCCOC)cc23)c1 [erlotinib],median TGI,"[1]; four xenograft cases (PANC185, PANC219, JH033, JH034)",33%
same,mean TGI %,"[1]; four xenograft cases, second-line arm",30%
same,responders (TGI <20%),"[1]; of four xenograft cases, second-line treatment",only one xenograft responded
CC(=O)O[C@@]12CO[C@@H]1C[C@H](O)[C@@]1(C)C(=O)[C@H](O)C3=C(C)[C@@H](OC(=O)[C@H](O)[C@@H](NC(=O)OC(C)(C)C)c4ccccc4)C[C@@](O)([C@@H](OC(=O)c4ccccc4)[C@H]21)C3(C)C [docetaxel],xenograft response (sensitive/resistant),"[2]; xenograft PANC185, docetaxel",resistant
same,TGI,"[2]; xenograft PANC185, docetaxel for 21 days",83%
same,xenograft response (sensitive/resistant),"[2]; xenograft PANC215, docetaxel",resistant
same,TGI,"[2]; xenograft PANC215, docetaxel for 21 days",41%
same,xenograft response (sensitive/resistant),"[2]; xenograft PANC265, docetaxel",sensitive
same,TGI,"[2]; xenograft PANC265, docetaxel for 21 days",−79%
same,tumor volume change,[1]; xenograft JH033,Regression in tumor volume
same,tumor volume change,[1]; xenograft JH034,Regression in tumor volume
CO[C@H]1C[C@@H]2CC[C@@H](C)[C@@](O)(O2)C(=O)C(=O)N2CCCC[C@H]2C(=O)O[C@H]([C@H](C)C[C@@H]2CC[C@@H](OC(=O)C(C)(CO)CO)[C@H](OC)C2)CC(=O)[C@H](C)/C=C(\C)[C@@H](O)[C@@H](OC)C(=O)[C@H](C)C[C@H](C)/C=C/C=C/C=C/1C [temsirolimus],TGI,"[2]; xenograft JH024, after temsirolimus treatment",94%
same,xenograft response (sensitive/resistant),"[2]; xenograft JH024, temsirolimus",resistant
same,TGI,"[2]; xenograft PANC219, after temsirolimus treatment",−23%
same,xenograft response (sensitive/resistant),"[2]; xenograft PANC219, temsirolimus",sensitive
